Patent US10561723B2, “Treatment and prevention of anal conditions” (priority 2015, dated 2020)
“Also recorded” adds a separate entry of the source.

Tests used:
[1] = test system: anal intraepithelial neoplasia (AIN); assay: HRA with biopsies, case report Example 3; type: in vivo, human; conditions: Ex.3; for anal dysplasia, overall outcome of immunotherapy protocol: 5% imiquimod cream with perianal HPV-9 immunizations followed by 4-5 months of 2-3 times weekly intra-anal 5% 5-fluorouracil cream
From the text: (§1) Case Report Summary: The patient is a HIV positive gay with chronic HIV infection who presents with recurrent high grade squamous intraepithelial lesion (HSIL) post multiple ablative treatments. The patient received treatment for their HIV disease with a combination of anti-retroviral medicatons (abacavir, etravirine, prezista and ritonavir which was later modified to dolutegravir, etravirine and prezista and ritonavir). Over the past two years the CD4 count has been in the range of 250-350 and there has been low level HIV viremia (40-400 copies range per ml of plasma) due to intermittent adherence. The patient has other co-morbid conditions including hepatitis C, hypertension, hyperlipidemia, osteoporosis, and high risk sexual activity.
(§2) May 29, 2015 Discussed immunotherapy for recurrent HSIL after failing ablative therapies described above. Patient received HPV-9 vaccine intramuscular in the deltoid. This is the start of the immunotherapy protocol. Patient starts the intra-anal application of 5% imiquimod cream three times per week.
(§3) Jan. 15, 2016 4th perianal HPV-9 vaccination given. Discontinue 5% intra-anal imiquimod cream and begin 5% 5-fluorouracil cream intra-anally three times a week for 20 weeks.

[2] = test system: anal dysplasia; assay: Anal pap smear cytology, case report Example 3; type: in vivo, human; conditions: Ex.3, imiquimod + HPV-9 vaccine
From the text: as §1, §2, §3

[3] = Side effects, case report Example 3; type: in vivo, human; conditions: Ex.3; for most notable side effects of the immunotherapy protocol: 5% imiquimod cream and 5% 5-fluorouracil cream intra-anally, resolved on brief cessation or reduced frequency
From the text: Aug. 7, 2015 HRA done and biopsies taken. […] Pt told to wait until irritation has abated before continuing the imiquimod cream treatments. First perianal HPV-9 vaccination given.
The above case report represents a case of recurrent anal HSIL status post multiple ablative procedures. The patient has HIV infection and thus is moderately immunosuppressed. In spite of the immunosuppression, the patient was able to clear not only HSIL (AIN 2 and AIN 3) but also was able to clear LSIL (AIN 1). The presence of a normal anal pap smear result on Jun. […] 20, 2016. […] It is presumed that the use of the 5-fluorouracil cream treated nests of dysplastic cells that if not treated would likely lead to recurrent LSIL or HSIL. Thus, the immunotherapy protocol may be useful for patients in a salvage situation who have failed multiple ablative procedures with recurrent HSIL in the setting of immunosuppression due to HIV infection. […] This might be due to the immunosuppression secondary to chronic HIV infection.

[4] = test system: anal dysplasia; assay: Anal pap smear cytology, case report Example 1; type: in vivo, human
Procedure: (§4) Case Report Summary: A HIV negative patient with multifocal AIN 2 and AIN 3 in the anal transitional zone was enrolled. The patient was treated with intra-anal imiquimod followed by an intramuscular dose of HPV4 followed by four perianal HPV4 immunizations, each separated by 3-4 weeks. The patient was screened for high risk (HR) HPV DNA on a weekly basis and had multiple biopsies to identify possible dysplasia.
(§5) Detailed Data and Results: A HIV negative person presented for routine health care. […] Patient was referred for HRA. […] 5, 2014. Biopsies indicated the following: distal AIN 1 at three o'clock; AIN 1 at 4 o'clock; AIN 2 at 7 o'clock; AIN 2 at 10 o'clock; and AIN 2 at 12 o'clock. FIGS. 1B and 1C are posterior and anterior views, respectively, showing circumferential staining of the anal canal. Patient received the first immunization with qHPV vaccine IM in the deltoid on Nov. 13, 2014. On Dec. 1, 2014, the patient received the first perianal qHPV vaccine. They started to use 5% imiquimod on Dec. 1, 2014 with one packet applied intra-anally three times weekly.

[5] = test system: high risk (HR) HPV DNA; assay: Anal pap high risk HPV DNA screen, case report Example 1; type: in vivo, human
Procedure: as §4, §5

[6] = test system: anal intraepithelial neoplasia (AIN); assay: High resolution anoscopy (HRA) with biopsies, case report Example 1; type: in vivo, human
Procedure: as §4, §5

[7] = Tolerability, case report Example 1; type: in vivo, human; conditions: Ex.1; intra-anal 5% imiquimod 3x/wk; resolved, restarted after several days to one week
From the text: On Dec. 29, 2014 the patient was again examined and had ASCUS anal pap smear. The anal pap was negative for high risk HPV types. […] The erythema and discomfort resolved and imiquimod was restarted after a period of several days to one week. On Jan. 27, 2015 the anal pap smear was normal and negative for high risk HPV DNA. They received the third perianal qHPV vaccine.

[8] = test system: HPV other high risk types; assay: Anal HPV typing/assay, case report Example 3; type: in vivo, human
From the text: as §1, §2, §3

[9] = test system: HPV DNA / AIN; conditions: cited from earlier work
[10] = test system: hepatitis C, genotype 1; assay: Hepatitis C treatment of the Example 3 patient; type: in vivo, human; conditions: Ex.3 patient; 12 weeks of treatment; 12 weeks post completion of therapy
[11] = imiquimod + HPV-9 vaccine, then intra-anal 5% 5-fluorouracil cream from Jan. 15, 2016, Apr. 21, 2016
[12] = imiquimod + HPV-9 vaccine, then intra-anal 5% 5-fluorouracil cream from Jan. 15, 2016, Jun. 20, 2016
[13] = then intra-anal 5% 5-fluorouracil cream from Jan. 15, 2016, Jun. 20, 2016
[14] = Ex.1 HIV negative male with AIN 2/3, intra-anal 5% imiquimod 3x/wk + qHPV (HPV4) vaccine (IM, then 4 perianal)
[15] = Ex.1, imiquimod + qHPV vaccine, Dec. 29, 2014
[16] = Ex.1, imiquimod + qHPV vaccine, Jan. 27, 2015
[17] = Ex.1, imiquimod + qHPV vaccine, Dec. 11, 2014
[18] = Ex.1, imiquimod + qHPV vaccine, Feb. 10, 2015
[19] = Ex.1, imiquimod + qHPV vaccine, Feb. 25, 2015
[20] = Ex.1, imiquimod + qHPV vaccine, Pathology Report I
[21] = Ex.1, imiquimod + qHPV vaccine, Pathology Report II (Feb. 25, 2015)

In the case of `O=c1[nH]cc(F)c(=O)[nH]1` [5-fluorouracil], the “anal dysplasia, overall outcome of immunotherapy protocol” value [1] is reported as “clearance of anal dysplasia (AIN 1, AIN 2 and AIN 3)”, the HRA biopsies histology [1, 11] is reported as 3 o'clock—AIN 1; 5 o'clock—AIN 1; 6 o'clock—AIN 1; 9 o'clock—AIN 1; 10 o'clock—benign; 12 o'clock—benign and the HRA biopsies histology [1, 12] is reported as 3 o'clock—benign; 9 o'clock—benign anal mucosa; 10 o'clock—benign anal mucosa; 12 o'clock—benign anal mucosa. The anal pap cytology [2, 13] was “negative for intraepithelial lesion and malignancy” and the “most notable side effects of the immunotherapy protocol” value [3] was “anal and perianal irritation”.

With `CC(C)Cn1cnc2c(N)nc3ccccc3c21` [imiquimod, 3-(2-Methylpropyl)-3,5,8-triazatricyclo[7.4.0.0^2,6]trideca-1(9),2(6),4,7,10,12-hexaen-7-amine] the “anal Pap smear, overall outcome” value [4, 14] was “normalization of the anal Pap smear from ASCUS”, the “anal pap smear cytology” value [4, 15] was “ASCUS” and the anal pap cytology ([4]; Ex.1, imiquimod + qHPV vaccine, Feb. 10, 2015 (Pathology Report I concurrent pap)) was “normal; also recorded: negative for intraepithelial lesion and malignancy”. For the same molecule, the “anal pap smear cytology” value ([4]; Ex.1, imiquimod + qHPV vaccine, Feb. 25, 2015 (Pathology Report II concurrent pap)) was “normal; also recorded: negative for intraepithelial lesion and malignancy”, the “anal pap smear cytology” value [4, 16] was “normal” and the “anal dysplasia, overall outcome of immunotherapy protocol” value [1] was “clearance of anal dysplasia (AIN 1, AIN 2 and AIN 3)”. The HRA biopsies histology ([1]; imiquimod + HPV-9 vaccine IM, Aug. 7, 2015) was 3 o'clock—AIN 2; 4 o'clock—AIN 1; 9 o'clock—AIN 1; 10 o'clock distal—AIN 1; 12 o'clock AIN 2, the HRA biopsies histology [1, 11] was 3 o'clock—AIN 1; 5 o'clock—AIN 1; 6 o'clock—AIN 1; 9 o'clock—AIN 1; 10 o'clock—benign; 12 o'clock—benign and the HRA biopsies histology [1, 12] was 3 o'clock—benign; 9 o'clock—benign anal mucosa; 10 o'clock—benign anal mucosa; 12 o'clock—benign anal mucosa. For the same molecule, the HRA biopsies histology ([1]; imiquimod + HPV-9 vaccine, Dec. 9, 2015) was 3 o'clock AIN—1; 6 o'clock—AIN 1; 9 o'clock—benign, the HRA biopsies histology ([1]; imiquimod + HPV-9 vaccine, Oct. 28, 2015) was 1 o'clock—AIN 1; 4 o'clock—benign; 9 o'clock—AIN 1; 12 o'clock—AIN 1 and the HRA biopsies histology ([1]; imiquimod + HPV-9 vaccine, Sep. 30, 2015) was 3 o'clock—AIN 1; 4 o'clock—AIN 1; 9 o'clock—AIN 1; 10 o'clock—AIN 1; 12 o'clock—benign. For the same molecule, the “HR HPV DNA, overall outcome” value [5, 14] was “loss of HR HPV DNA including HPV16”, the “anal pap high risk HPV DNA” value [5, 17] was “negative” and the “anal pap high risk HPV types” value [5, 15] was “negative”. For the same molecule, the “anal pap high risk HPV DNA” value [5, 18] was “negative”, the “HPV DNA” value [5, 19] was “negative” and the “anal pap high risk HPV DNA” value [5, 16] was “negative”. The “anal dysplasia, overall outcome” value [6, 14] was “resolution of anal dysplasia”, the HRA biopsies histology [6, 17] was “AIN 1 at 4 o'clock; AIN 2 at 7 o'clock and AIN 3 at 12 o'clock” and the HRA biopsies histology [6, 15] was “AIN 2 at 7 o'clock and focal AIN 1 at 12 o'clock”. The HRA biopsies histology [6, 18] was “normal histology at 4, AIN 1 at 10 and small focal AIN 2 at 12 o'clock”, the “anoscopist's observation of anal canal epithelium” value [6, 19] was “remodeling of the anal canal epithelium, replacing thickened dysplastic epithelium with thin, translucent epithelium, which is normal” and the “biopsies at 2, 6, 10 and 12 o'clock” value [6, 16] was “all normal without evidence of dysplasia”. For the same molecule, the “biopsy diagnosis, anal canal 4 o'clock (transition zone)” value [6, 20] was “no evidence of dysplasia or malignancy”, the “biopsy diagnosis, anal canal 10 o'clock (transition zone)” value [6, 20] was “AIN 1” and the “biopsy diagnosis, anal canal 12 o'clock (transition zone)” value [6, 20] was “AIN 2”. For the same molecule, the “biopsy diagnosis, anal canal 5 o'clock” value [6, 21] was “no evidence of dysplasia or malignancy”, the “biopsy diagnosis, anal canal 7 o'clock” value [6, 21] was “no evidence of dysplasia or malignancy” and the “biopsy diagnosis, anal canal 10 o'clock” value [6, 21] was “no evidence of dysplasia or malignancy”. The “biopsy diagnosis, anal canal 12 o'clock” value [6, 21] was “no evidence of dysplasia or malignancy”, the “local adverse effect leading to interruptions of imiquimod cream” value [7] was “increased perianal erythema” and the anal pap cytology [2, 13] was “negative for intraepithelial lesion and malignancy”. The anal pap cytology ([2]; Oct. 28, 2015) was “atypical cells of undetermined significance (ASCUS)”, the anal pap cytology ([2]; Sep. 30, 2015) was “LSIL” and the “most notable side effects of the immunotherapy protocol” value [3] was “anal and perianal irritation”. The “patient complaints due to imiquimod cream treatments” value ([3]; intra-anal 5% imiquimod cream 3x/wk, Aug. 7, 2015) was “anal irritation and spotting of blood per anus”, the HPV typing ([8]; Ex.3 HIV positive male, recurrent HSIL after ablative treatments, intra-anal 5% imiquimod 3x/wk + HPV-9 vaccine IM (May 29, 2015), Aug. 7, 2015) was “positive for other high risk types” and the HPV assay ([8]; Ex.3, imiquimod + HPV-9 vaccine (IM, 1 perianal), Sep. 30, 2015) was “continued presence of other HPV high risk types”. The “developed recurrent AIN” value ([9]; after intra-anal 5% imiquimod cream, mean follow up approximately 30 months, often HPV types differing from start) was 5 patient and the “HPV DNA viral loads” value ([9]; intra-anal 5% imiquimod cream three times weekly for 16 weeks, 19 HIV positive men with AIN) was “decreased”.

For `CCN(CC)CC(=O)Nc1c(C)cccc1C` [lidocaine], the “burning at the site of HPV vaccination” value ([3]; local infusion of 1% lidocaine prior to perianal HPV-9 vaccinations) was “much less burning”.

With sofosbuvir/ledipasvir the virologic response [10] was “sustained virologic response”.
